This passage reports IC50 and Kd results from paper PMC6832265 (Molecules, 2019).

Read-outs that look alike come from different tables or passages of the source.

For assay [1], the target named is T1, Tdp1 (Homo sapiens, UniProt Q9NUW8).
T1 construct: made in house; host or cells: Escherichia coli
Particulars: read-out: IC50; cited from earlier work.

The target of assay [2] is T1, Tdp1. The assay is described as follows: Real-time detection of Tdp1 activity (5'-FAM/3'-BHQ1 oligonucleotide biosensor). It is filed as biochemical. The settings on record: 1.5 nM Tdp1, 50 nM oligonucleotide substrate, 26 °C. Summed up:
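Recombinant human Tdp1 (E. coli-expressed, 1.5 nM) with 50 nM 16-mer ssDNA 5'-FAM/3'-BHQ1 biosensor in 50 mM Tris-HCl, 50 mM NaCl, 7 mM β-mercaptoethanol, 26 °C; fluorescence (Ex485/Em520) read each minute. Inhibition from linear-phase slope (0–7 min) vs 1.5% DMSO control; IC50 from six-point curves, ≥2 independent experiments.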

The target in assay [3] is T2, recombinant Tdp1 (residues 149–608) (Homo sapiens, UniProt Q9NUW8).
T2 construct: recombinant Tdp1 (residues 149–608) was obtained from GenScript; host or cells: E. coli BL21(DE3)
The assay is described as follows: Intrinsic tryptophan fluorescence quenching binding assay. The settings on record: 10 µM Tdp1, 20 mM Tris, 250 mM NaCl, pH 8; triplicate. The method, then: The binding of the synthesized compounds to recombinant Tdp1 was also tested (Table 1 and Table 2) by using an intrinsic tryptophan fluorescence quenching assay. […] As our compounds are aromatic in nature, there is a possibility that they may bind to both the active site as well as non-specifically to the DNA/peptide binding pockets. Nonetheless, our results confirmed that the compounds were indeed binders of Tdp1, thus complementing our inhibition data.
pET-28a(+) plasmid encoding recombinant Tdp1 (residues 149–608) was obtained from GenScript. E. coli BL21(DE3) was used for recombinant protein production. Protein production was induced with 1 mM IPTG at 28 °C with overnight incubation. Tdp1 was purified using affinity and size exclusion chromatography. Fluorescence was measured using a PerkinElmer EnSpire Multimode Reader. Tdp1 concentration was 10 μM with varying compound concentrations. The buffer was 20 mM Tris and 250 mM NaCl (pH 8). The excitation wavelength was 280 nm and intrinsic fluorescence was measured at 350 nm. Control experiments with Tdp1 or the compound on its own were also conducted. Background fluorescence arising from the compounds was subtracted from the final spectrum. The total volume per well was 30 μL. The dissociation constant (KD) was calculated using Equation (1), which takes non-specific binding into account. y = Bmaxx/(KD + x) + Nsx(1) where y denotes the changes in fluorescence intensity; x denotes the concentration of the compounds; Bmax denotes the maximum changes in fluorescence intensity; and Ns is a scaling factor for non-specific binding. Experiments were conducted in triplicate.

T1 sequence (Q9NUW8 whole entry): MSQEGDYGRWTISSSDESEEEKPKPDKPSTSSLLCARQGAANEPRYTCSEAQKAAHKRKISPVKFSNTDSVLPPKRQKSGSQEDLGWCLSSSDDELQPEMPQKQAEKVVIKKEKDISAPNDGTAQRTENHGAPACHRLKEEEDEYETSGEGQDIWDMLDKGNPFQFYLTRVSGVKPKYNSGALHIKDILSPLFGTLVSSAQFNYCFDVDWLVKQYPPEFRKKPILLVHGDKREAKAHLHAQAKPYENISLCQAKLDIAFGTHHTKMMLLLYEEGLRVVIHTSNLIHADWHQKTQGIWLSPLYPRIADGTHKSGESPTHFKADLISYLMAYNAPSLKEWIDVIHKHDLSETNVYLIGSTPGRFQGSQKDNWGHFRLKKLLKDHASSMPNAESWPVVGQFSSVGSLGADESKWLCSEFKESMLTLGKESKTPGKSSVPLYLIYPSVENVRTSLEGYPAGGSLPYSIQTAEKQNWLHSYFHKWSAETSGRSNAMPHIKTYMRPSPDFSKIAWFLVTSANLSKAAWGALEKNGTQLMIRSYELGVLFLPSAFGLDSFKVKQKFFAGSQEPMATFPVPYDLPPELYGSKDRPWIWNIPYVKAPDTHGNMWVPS
T2 sequence (Q9NUW8 149-608): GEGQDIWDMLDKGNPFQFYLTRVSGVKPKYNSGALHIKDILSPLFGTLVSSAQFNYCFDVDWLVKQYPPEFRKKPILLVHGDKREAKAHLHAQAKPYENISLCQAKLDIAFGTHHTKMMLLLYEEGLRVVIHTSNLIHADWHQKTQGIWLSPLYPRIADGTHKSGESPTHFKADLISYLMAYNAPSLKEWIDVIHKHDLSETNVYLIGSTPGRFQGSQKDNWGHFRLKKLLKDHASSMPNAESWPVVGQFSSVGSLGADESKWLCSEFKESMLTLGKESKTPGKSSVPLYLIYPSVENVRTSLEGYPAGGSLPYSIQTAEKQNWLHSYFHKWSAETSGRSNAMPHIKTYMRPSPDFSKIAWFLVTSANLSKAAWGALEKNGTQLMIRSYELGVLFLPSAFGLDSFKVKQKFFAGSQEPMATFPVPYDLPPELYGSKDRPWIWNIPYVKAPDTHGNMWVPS

As usually defined, the IC50 is the concentration needed to halve the response being measured. In the case of `CC1(C)[C@H]2CC=C(COc3ccc4c5c(c(=O)oc4c3)CCC5)[C@@H]1C2` [compound 7], in assay [1], the half-maximal inhibitory concentration (IC50) was 670 nM.

`CCCCN(CCCC)CC(=O)Nc1cc(C(F)(F)F)cc2c1SSSSS2` [compound 2]: the IC50 in assay [1] is 200 nM.

By Kd is commonly meant the equilibrium constant for the complex coming apart. The compound `CC(=O)C1=C(O)C=C2Oc3c(-c4csc(N/N=C/c5cnc[nH]5)n4)c(O)c(C)c(O)c3[C@@]2(C)C1=O` [(+)-16o, 5-[(1E)-(2-{4-[(1R)-12-Acetyl-3,5,11-trihydroxy-1,4-dimethyl-13-oxo-8-oxatricyclo[7.4.0.0^2,7]trideca-2(7),3,5,9,11-pentaen-6-yl]-1,3-thiazol-2-yl}hydrazin-1-ylidene)methyl]-1H-imidazol-1-ium bromide] yielded a half-inhibitory concentration (IC50) in assay [2] of 1690 ± 890 nM. In addition, in assay [3], the Kd came out at 38 ± 2 µM.

In assay [2], `COc1ccc(/C=N/Nc2nc(-c3c(O)c(C)c(O)c4c3OC3=CC(O)=C(C(C)=O)C(=O)[C@@]34C)cs2)cc1Cn1nc(C)c([N+](=O)[O-])c1C` [(+)-17k, (2R)-4-Acetyl-10-{2-[(E)-2-({3-[(3,5-dimethyl-4-nitro-1H-pyrazol-1-yl)methyl]-4-methoxyphenyl}methylidene)hydrazin-1-yl]-1,3-thiazol-4-yl}-5,11,13-trihydroxy-2,12-dimethyl-8-oxatricyclo[7.4.0.0^2,7]trideca-1(9),4,6,10,12-pentaen-3-one] had a half-maximal inhibitory concentration (IC50) of 54 ± 8 nM. The equilibrium dissociation constant (Kd) in assay [3] is 156 ± 8 µM.

The compound `CC(=O)C1=C(O)C=C2Oc3c(-c4csc(N/N=C/c5cccs5)n4)c(O)c(C)c(O)c3[C@]2(C)C1=O` [(−)-16g, (2S)-4-Acetyl-5,11,13-trihydroxy-2,12-dimethyl-10-{2-[(E)-2-[(thiophen-2-yl)methylidene]hydrazin-1-yl]-1,3-thiazol-4-yl}-8-oxatricyclo[7.4.0.0^2,7]trideca-1(9),4,6,10,12-pentaen-3-one] gave an IC50 in assay [2] of 169 ± 6 nM. Also, the Kd in assay [3] is 281 ± 25 µM.

In assay [2], “(2S)-4-Acetyl-5,11,13-trihydroxy-2,12-dimethyl-10-{2-[(E)-2-[(thiophen-3-yl)methylidene] hydrazin-1-yl]-1,3-thiazol-4-yl}-8-oxatricyclo[7.4.0.0^2,7]trideca-1(9),4,6,10,12-pentaen-3-one amine [(−)-16j]” showed an IC50 of 40 ± 3 nM. Further, the Kd in assay [3] amounted to 771 ± 46 µM.

As for `CC(=O)C1=C(O)C=C2Oc3c(-c4csc(N/N=C/c5ccc[nH]5)n4)c(O)c(C)c(O)c3[C@]2(C)C1=O` [(−)-16m, (2S)-4-Acetyl-5,11,13-trihydroxy-2,12-dimethyl-10-{2-[(E)-2-[(1H-pyrrol-2-yl)methylidene] hydrazin-1-yl]-1,3-thiazol-4-yl}-8-oxatricyclo[7.4.0.0^2,7]trideca-1(9),4,6,10,12-pentaen-3-one], in assay [2], the IC50 is 18 ± 1 nM. Further, the Kd in assay [3] came to 354 ± 40 µM.

`CC(=O)C1=C(O)C=C2Oc3c(-c4csc(N/N=C/c5cccnc5)n4)c(O)c(C)c(O)c3[C@]2(C)C1=O` [(−)-16c, 3-[(1E)-(2-{4-[(1S)-12-Acetyl-3,5,11-trihydroxy-1,4-dimethyl-13-oxo-8-oxatricyclo[7.4.0.0^2,7]trideca-2(7),3,5,9,11-pentaen-6-yl]-1,3-thiazol-2-yl}hydrazin-1-ylidene)methyl]pyridin-1-ium bromide]: the concentration for half-maximal inhibition (IC50) in assay [2] was determined as 154 ± 18 nM. In assay [3], the Kd stood at 262 ± 25 µM.

On to `COc1ccc(/C=N/Nc2nc(-c3c(O)c(C)c(O)c4c3OC3=CC(O)=C(C(C)=O)C(=O)[C@@]34C)cs2)cc1CN1CCN(c2ccc(F)cc2)CC1` [(+)-17i, (2R)-4-Acetyl-10-{2-[(E)-2-[(3-{[4-(4-fluorophenyl)piperazin-1-yl]methyl}-4-methoxyphenyl)methylidene]hydrazin-1-yl]-1,3-thiazol-4-yl}-5,11,13-trihydroxy-2,12-dimethyl-8-oxatricyclo[7.4.0.0^2,7]trideca-1(9),4,6,10,12-pentaen-3-one], for which the concentration for half-maximal inhibition (IC50) in assay [2] worked out at 80 ± 7 nM. Also, the Kd in assay [3] amounted to 161 ± 22 µM.
